Legend:
VPA-exposed rats = assay: short-term memory, novel object recognition test, prenatal VPA model; type: in vivo, rat
Experimental: Pregnant Sprague-Dawley rats (Charles River, Calco, Italy), received a single intraperitoneal injection of 500 mg/kg sodium valproate on the 12.5 day after conception, and control females were injected with physiological saline at the same time. Sodium valproate (Sigma Aldrich, Milan, IT) was dissolved in saline at a concentration of 250 mg/ml.
CBDV was dissolved in ethanol, cremophor and saline (1:1:18). Symptomatic treatment with CBDV at doses of 0.2, 2, 20, and 100 mg/kg/day i.p. was performed starting from PND 34 (early adolescence) till 56 (early adulthood), both in male and female offspring of dams injected with VPA 500 mg/kg (or vehicle) on day 12.5 after conception. […]
Short-term memory: The experimental apparatus used for the object recognition test was an open-field box (43×43×32 cm) made of Plexiglas, placed in a dimly illuminated room. The experiment was performed and analysed as previously described (Zamberletti et al, 2014). […]
Each animal was placed in the arena and allowed to explore two identical previously unseen objects for 5 minutes (familiarization phase). […] During the test phase the time spent exploring the familiar object (Ef) and the new object (En) was videotaped and recorded separately by two observers blind to the treatment groups and the discrimination index was calculated as follows: [(En−Ef)/(En+Ef)]×100.

MeCP2 KO mice = assay: Novel Object Recognition (NOR) test in MeCP2 KO mice; type: in vivo, mouse
Experimental: Furthermore, the efficacy of CBDV in reverting/attenuating the short- and long-term memory deficits present in these mice was evaluated. The Novel Object Recognition (NOR) test was performed before the starting of the treatment Post Natal Day 28 (PND 28), at PND 41 when the first motor symptoms appear and at PND 56 and 66 when the disease is fully manifested.
At PND 28, 41, 56 and 66 the effect of CBDV on short- and long-term memory deficits was investigated through the Novel Object Recognition (NOR) test.
The experimental apparatus used for the Novel Object Recognition test was an open-field box (43×43×32 cm) made of Plexiglas, placed in a dimly illuminated room. Animals performed each test individually.
Briefly, each animal was placed in the arena and allowed to explore two identical previously unseen objects for 10 minutes (familiarization phase). After an inter-trial interval of 30 minutes and 24 hours one of the two familiar objects was replaced by a novel, previously unseen object and mice were returned to the arena for the 10-minute test phase.
During the test phase the time spent exploring the familiar object (Ef) and the new object (En) was recorded separately by two observers blind to the groups and the discrimination index was calculated as follows: [(En−Ef)/(En+Ef)]×100.

Ube3am-/p+ (AS) mice [1] = assay: clasping test in Angelman syndrome mice; type: in vivo, mouse; settings: chronic treatment (30 days), 20 mg/kg i.p., 10 weeks of age, vs AS vehicle
Experimental: (§1) Heterozygous mice with maternal deficiency of Ube3A (Ube3am−/p+) and wild type (Ube3am+/p+) were purchased from The Jackson Laboratory (Jackson code: B6.12957-Ube3a tm1Alb/J) and maintained in a C57BL/6 background.
(§2) Drugs were dissolved in 1:1:18 ethanol:cremophor:0.9% saline, for intraperitoneal (i.p.) administration. Drug treatment was performed daily for 35 days. CBDV was administered at 20 mg/kg.
Clasping: The clasping test assesses ataxia in mice. Mice were suspended by the base of the tail and their behaviours were recorded for 30 seconds. The time for which the mice clasped their hind limbs was recorded. The time was then scored as follows: 4, 15-30 s, 3, 10-15 s, 2, 5-10 s, 1, 0-5 s and 0.0 s

Ube3am-/p+ (AS) mice [2] = assay: novel object recognition in Angelman syndrome mice; type: in vivo, mouse; settings: 20 mg/kg i.p., age 7-8 weeks, vs AS vehicle
Experimental: as §1, §2
Novel Object Recognition: The novel object recognition assesses recognition memory in mice. The experiment started with the habituation period, during which mice were allowed to freely explore for 1 hour the apparatus which consists of a rectangular open box (40×30×30 cm width×length×height) made of grey polyvinyl chloride (PVC) illuminated by a dim light. The day after each mouse was allowed to explore two identical objects positioned in the back left and right corners for 5 min (acquisition). A video camera recorded the time spent on exploration of each object. […] The behaviour of mice was analyzed by an observer blind to the treatment. Data are expressed as percentage of recognition index (RI %), which was calculated as the percentage of the time spent exploring the novel object/time spent exploring the novel object+time spent exploring the familiar object×100.

SMILES: C=C(C)[C@@H]1CCC(C)=C[C@H]1c1c(O)cc(CCC)cc1O [CBDV, Cannabidivarin]
- short-term memory deficit (discrimination index) (VPA-exposed rats; male and female VPA rats, 2, 20 and 100 mg/kg): completely and significantly reversed
- recognition memory per se (VPA-exposed rats; vehicle-treated (non VPA) rats): without affecting
- cognitive impairment in short-term memory (MeCP2 KO mice; MeCP2 KO mice, 2, 20 and 200 mg/kg, each time point (PND 41, 56, 66), 30 minutes interval): significantly reverted
- cognitive impairment in long-term memory (MeCP2 KO mice; MeCP2 KO mice, all three doses, 24 hours interval): significantly counteract
- recognition memory (long-term) (MeCP2 KO mice; WT littermates): without affecting
- recognition memory (short-term) (MeCP2 KO mice; WT littermates): without affecting
- clasping duration (Ube3am-/p+ (AS) mice [1]): significantly reduced
- discrimination index (Ube3am-/p+ (AS) mice [2]): significantly increased
